Several values for one entry are separate records, joined by “and”; a condition that tells them apart may be missing. Equal entries are not always repeated. Where two headings read alike, the source gives them in different places. Values belong to the molecule of their own block, whether it stands above or below them. No end group written: not given here.
What was measured:
[1] = system: L. donovani promastigotes; experiment: L. donovani promastigote growth inhibition (resazurin); type: cell-based, Leishmania donovani; conditions: for IC50: 72 h exposure, three independent replicates, read-out: L. donovani IC50 ± SD
Description: (§1) All the restriction enzymes used in this study were sourced from New England BioLabs (240 County Road Ipswich, Ipswich, MA, USA). The PTS1 peptides, both unlabeled and fluorescently labeled at the N-terminus with fluorescein isothiocyanate (FITC), were purchased from Peptron (Daejeon, Republic of Korea). All the inhibitors were purchased from Enamine (Kyiv, Ukraine). L. donovani strain MHOM/SD/62/1S-CL2D and L. major strain LV39 (MRHO/Sv/59/P) were cultured in their extracellular promastigote forms. The parasite was cultured at 28 °C using M199 medium (Sigma-Aldrich, St. Louis, MO, USA) supplemented with 40 mM HEPES, 0.1 mM adenine, 0.0001% biotin, and 4.62 mM NaHCO3, along with additional supplements of hemin and xanthine. The T. brucei brucei Lister strain 427 in its bloodstream form (BSF) was cultured at 37 °C in a controlled atmosphere consisting of 5% CO2 in HMI-9 medium enriched with 10% fetal bovine serum (FBS), 100 µg/mL penicillin, and 100 µg/mL streptomycin. The parasites were maintained through only 10 passages for this study.
(§2) Briefly, the assays were conducted in 384-well plates, each well was seeded with 5 × 10^4 parasites, and the compounds were exposed for 72 h. The compounds were tested in dose-diluted format, starting from 100 μM with a two-fold dilution across 10 points. Subsequently, resazurin was added to each well to achieve a final concentration of 200 μM. The plates were then incubated for an additional 5 h before fixation. The assay results were recorded using a Victor3 plate reader (PerkinElmer, Shelton, CT, USA). For the assessment against L. donovani intracellular amastigotes, phorbol 12-myristate 13-acetate-treated THP-1 cells were seeded at 0.8 × 10^4 cells per well in a 384-well plate in RPMI-1640 complete medium supplemented with 10% FBS. After 48 h, the infection was carried out using L. donovani promastigotes with a multiplicity of infection of 10:1. The infected cells were treated with compounds for 72 h, then the cells and parasites were washed, stained with 5 µM 4′,6-diamidino-2-phenylindole (DAPI), and fixed with 4% paraformaldehyde. Images were acquired using Operetta® CLS™ (PerkinElmer, Shelton, CT, USA), and the numbers of parasites and host cells were quantified using Columbus™ software version 2.8 (PerkinElmer, Shelton, CT, USA).
(§3) All half-maximal inhibitory concentration (IC50) values were determined based on data obtained from three independent experiments. The dose–response curves were generated and analyzed using GraphPad Prism 6 software (GraphPad Software, San Diego, CA, USA). For the analysis, a sigmoidal dose–response equation was employed, incorporating a variable hill slope option.

L. major promastigotes = experiment: L. major promastigote growth inhibition (resazurin); type: cell-based, Leishmania major; conditions: for IC50: 72 h exposure, three independent replicates, read-out: L. major IC50 ± SD
Description: as §1, §2, §3

LdPEX5-PTS1 interaction = target: T1, LdPEX5-PTS1 interaction (Leishmania donovani, UniProt A0A3S7X906); experiment: biochemical; type: binding; conditions: 1 µM LdPEX5, 5 nM FITC-SGAGSKL
T1 construct: encoding LdPEX5CT, corresponding to 322 amino acids (AF198051.1: 303-625), was synthesized; 6xHis (pET15b) (N); made in house; host or cells: Escherichia coli BL21 (DE3)
T1 sequence (A0A3S7X906 entry or part of it): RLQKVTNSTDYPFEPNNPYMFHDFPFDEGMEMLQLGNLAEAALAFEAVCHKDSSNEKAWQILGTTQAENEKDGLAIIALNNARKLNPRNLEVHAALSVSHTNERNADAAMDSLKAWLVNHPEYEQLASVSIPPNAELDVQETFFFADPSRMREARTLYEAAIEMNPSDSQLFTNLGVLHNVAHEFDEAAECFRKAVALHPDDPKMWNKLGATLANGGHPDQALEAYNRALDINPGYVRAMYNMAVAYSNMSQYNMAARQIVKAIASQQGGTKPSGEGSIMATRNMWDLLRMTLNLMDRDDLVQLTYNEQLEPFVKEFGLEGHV
Description: HTS using FP was conducted to identify inhibitors of the LdPEX5-PTS1 interaction. The screening utilized an in-house compound library comprising 51,406 compounds with diverse structural profiles. All compounds were initially solubilized in 100% DMSO with a concentration of 2 mM, and the final testing concentration in the assay was set at 20 μM. DMSO served as the negative control, while unlabeled PTS1 peptide (TRYPAKL) was used as the positive control. The assay mixture included FITC-SGAGSKL peptide and LdPEX5 at final concentrations of 5 nM and 1 μM, respectively. The reaction plates with compounds were incubated for 1 h at room temperature before FP signal detection. Single-point inhibition assays were performed, and the Z’ factor was employed to assess the quality of the assay. The Z’ factor was calculated using the formula Z′ = 1 − 3(σp + σn)/(μp − μn), where σp and σn are the standard deviations of the positive and negative controls, respectively, and μp and μn represent their respective mean values.
as §3

T. brucei BSF = T. brucei BSF growth inhibition (resazurin); type: cell-based, Trypanosoma brucei; conditions: for IC50: Trypanosoma brucei, blood stream form, 72 h exposure, three independent replicates, read-out: T. brucei IC50 ± SD; for Growth inhibition of T. brucei (in words): BSF
Description: as §1, §2, §3

[2] = system: L. donovani intracellular amastigotes; experiment: L. donovani intracellular amastigote assay in THP-1 cells (image-based); type: cell-based, Leishmania donovani; conditions: infected THP-1 cells, 72 h treatment
Description: as §2

[3] = 1 h, three independent replicates, read-out: LdPEX5-PTS1 Inhibition IC50 ± SD
[4] = IC50 of unlabeled PTS1 peptides, peptide from 60 µM half dilution 10 points

Molecule: C[C@@H]1[C@H](O)[C@@H](C)/C=C/C=C/C=C/C=C/C=C/C=C/C=C/[C@H](O[C@@H]2O[C@H](C)[C@@H](O)[C@H](N)[C@@H]2O)C[C@@H]2O[C@](O)(C[C@@H](O)C[C@@H](O)[C@H](O)CC[C@@H](O)C[C@@H](O)CC(=O)O[C@H]1C)C[C@H](O)[C@H]2C(=O)O [Amphotericin B, reference compound]
- IC50 ([1]; Leishmania donovani, 72 h): 0.42 ± 0.03 µM

Molecule: CCCCCCCCCCCCCCCCOP(=O)([O-])OCC[N+](C)(C)C [Miltefosine, reference compound]
- IC50 (L. major promastigotes; Leishmania major, 72 h): 7.37 ± 1.67 µM

Molecule: N=C(N)c1ccc(OCCCCCOc2ccc(C(=N)N)cc2)cc1 [Pentamidine, reference compound]
- IC50 (T. brucei BSF): 0.69 ± 0.05 µM

Molecule: ARLASKV [ARLASKV, reference compound]
- IC50 (LdPEX5-PTS1 interaction; [4]): > 60 µM

Molecule: SGAGSKL [SGAGSKL, reference compound]
- IC50 (LdPEX5-PTS1 interaction; [4]): 10.7 µM

Molecule: TRYPAKL [TRYPAKL, reference compound]
- IC50 (LdPEX5-PTS1 interaction; [4]): 3.61 µM

Further lines, with some results ahead:

- IC50 (LdPEX5-PTS1 interaction; [3]): 23.6 ± 0.86 µM
- IC50 ([1]; Leishmania donovani, 72 h): > 50 µM
- IC50 (L. major promastigotes; Leishmania major, 72 h): > 50 µM
- IC50 (T. brucei BSF): > 50 µM
Molecule: CN(C)c1ccc(Nc2cnc3ccccc3n2)cn1 [P02]

- IC50 (LdPEX5-PTS1 interaction; [3]): 14.6 ± 0.76 µM
- IC50 ([1]; Leishmania donovani, 72 h): > 50 µM
- IC50 (L. major promastigotes; Leishmania major, 72 h): > 50 µM
- IC50 (T. brucei BSF): 12.1 ± 2.19 µM
Molecule: Cn1ncc(-c2nc3cc(S(N)(=O)=O)ccc3[nH]2)n1 [P04, 2-(2-methyl-2H-1,2,3-triazol-4-yl)-1H-benzo[d]imidazole-5-sulfonamide]

- IC50 (LdPEX5-PTS1 interaction; [3]): 3.89 ± 0.15 µM
- IC50 ([1]; Leishmania donovani, 72 h): > 50 µM
- IC50 (L. major promastigotes; Leishmania major, 72 h): > 50 µM
- IC50 (T. brucei BSF): > 50 µM
Molecule: COc1ccc(NC(=O)C2(S(=O)(=O)c3ccc(Cl)cc3)CCCC2)cn1 [P08, 1-((4-chlorophenyl)sulfonyl)-N-(6-methoxypyridin-3-yl)cyclopentane-1-carboxamide]

- IC50 (LdPEX5-PTS1 interaction; [3]): ~16 µM and 16.2 µM
- IC50 ([1]; Leishmania donovani, 72 h): 3.3 ± 0.23 µM
- IC50 (L. major promastigotes; Leishmania major, 72 h): > 50 µM
- IC50 (T. brucei BSF): > 50 µM
Molecule: O=C(Nc1nc2ccccc2nc1N1CCCC1)c1ccc(Cn2cccn2)cc1 [P10, 4-((1H-pyrazol-1-yl)methyl)-N-(3-(pyrrolidin-1-yl)quinoxalin-2-yl)]
- Growth inhibition of L. major (in words) (L. major promastigotes): not active
- Growth inhibition of T. brucei (in words) (T. brucei BSF): not active
- Activity against intracellular amastigote form of Leishmania [2]: inactive

- IC50 (LdPEX5-PTS1 interaction; [3]): ~16 µM and 16.9 µM
- IC50 ([1]; Leishmania donovani, 72 h): > 50 µM
- IC50 (L. major promastigotes; Leishmania major, 72 h): > 50 µM
- IC50 (T. brucei BSF): > 50 µM
Molecule: Cc1ccc(C(=O)Nc2nc3ccccc3nc2N2CCCC2)cc1S(C)(=O)=O [P16]
- Growth inhibition of L. donovani (in words) [1]: not able to inhibit the growth
- Growth inhibition of L. major (in words) (L. major promastigotes): not able to inhibit the growth
- Growth inhibition of T. brucei (in words) (T. brucei BSF): not able to inhibit the growth

- IC50 (LdPEX5-PTS1 interaction; [3]): 25.2 ± 0.89 µM
- IC50 ([1]; Leishmania donovani, 72 h): > 50 µM
- IC50 (L. major promastigotes; Leishmania major, 72 h): > 50 µM
- IC50 (T. brucei BSF): > 50 µM
Molecule: Cc1cc(C(=O)Nc2cc(C(N)=O)ccc2N2CCCCC2)c2c(C)noc2n1 [P17]

- IC50 (LdPEX5-PTS1 interaction; [3]): 16.5 ± 0.79 µM
- IC50 [1]: 12.2 ± 1.36 µM
- IC50 ([1]; Leishmania donovani, 72 h): 19.2 ± 2.65 µM
- IC50 (L. major promastigotes): 19.2 ± 2.65 µM
- IC50 (L. major promastigotes; Leishmania major, 72 h): 12.2 ± 1.36 µM
- IC50 (T. brucei BSF): 3.06 ± 0.38 µM
Molecule: CNc1ccc(Nc2ncnc3sccc23)cn1 [P20, N^2-methyl-N^5-(thieno [2,3-d]pyrimidin-4-yl)pyridine-2,5-diamine]
- Growth inhibition of L. donovani (in words) [1]: inhibitory activity
- Growth inhibition of L. major (in words) (L. major promastigotes): inhibitory activity
- Growth inhibition of T. brucei (in words) (T. brucei BSF): inhibitory activity
- Activity against intracellular amastigote form of Leishmania [2]: inactive

- IC50 (LdPEX5-PTS1 interaction; [3]): 24.5 ± 1.05 µM
- IC50 ([1]; Leishmania donovani, 72 h): > 50 µM
- IC50 (L. major promastigotes; Leishmania major, 72 h): > 50 µM
- IC50 (T. brucei BSF): > 50 µM
Molecule: CCc1ncc2c(n1)CN(Cc1cc(=O)n3cccc(C)c3n1)CC2 [P21]

- IC50 (LdPEX5-PTS1 interaction; [3]): 16 ± 0.96 µM
- IC50 ([1]; Leishmania donovani, 72 h): > 50 µM
- IC50 (L. major promastigotes; Leishmania major, 72 h): > 50 µM
- IC50 (T. brucei BSF): > 50 µM
Molecule: CCOc1ccc(NC2CCN(Cc3cscn3)CC2)cn1 [P28]
